Data reported in patent US11685717B2, “Polypeptide integrin antagonists” (The General Hospital Corporation, priority 2018, dated 2023).
“Also recorded” adds a separate entry of the source. Positions of bridges follow the written chain, without caps; N, C: chain ends. Non-standard residues stand in square brackets, D forms with d. Residues, ends and D or L forms follow the SMILES beside them. hArg = N=C(N)NCCCC[C@H](N)C(=O)O; Mpa = O=C(O)CCS

Tests used:
human platelets [1] = experiment: Thrombin-induced clot retraction in human platelet-rich plasma; assay type: cell-based
Method: 750 μL of Tyrode's buffer supplemented with inhibitor was mixed in a glass culture tube with 200 μL of PRP and 5 μL red blood cells. Clotting was initiated by addition of 50 μL thrombin at 10 units/mL in saline and a sealed Pasteur pipette secured in the tube center. Digital photographs of the experiment were taken at 15-minute intervals over 2 hours. Images were analyzed with ImageJ software to determine the area occupied by the clot and plasma. Plots of the relative areas and linear regressions were performed with SigmaPlot (Systat Software, San Jose, Calif.).
No ligands were added to the control tube. Photographs were taken immediately after thrombin addition (FIG. 5A) and at the end of the reaction (FIG. 5B). Clot retraction around the central glass rod placed in each glass test tube before thrombin addition is shown. 5 μL of red blood cells were added per 1 mL reaction to enhance the color contrast for photography.
Clot retraction normally helps secure hemostasis in vivo as evidenced by increased bleeding in mice with impaired clot retraction (see e.g., Leon et al, Blood 110, 3183-3191, doi:10.1182/blood-2007-03-080184 (2007)), or in recipients of any of the three anti-αIIbβ3 drugs (see e.g., Tutwiler et al, Biophys. J. 112, 714-723 (2017); Osdoit et al, J. Biol. Chem. 276, 6703-6710 (2001); Haling et al, Blood 117, 1719-1722 (2011)). The effects of Hr10 and eptifibatide on thrombin-induced clot retraction in fresh human platelet-rich plasma (PRP) (see e.g., Tucker et al, Methods Mol. Biol. 788, 101-107 (2012)) were compared. The kinetics of clot retraction were determined from quantification of serial images of the reaction acquired every 15 minutes for the 2-hour duration of the assay. […] Thrombolysis, 15, 71-80 (2003).

[2] = Tail bleeding in vWF RH/RH NSG mice infused with human platelets; settings: mouse, in vivo
Method: Pentobarbital-anesthetized vWF^RH RHNSG mice were infused retroorbitally with 8×10^8 washed human platelets in a final volume of 200 μL (so that ˜40% of the circulating platelets were human). After 5 minutes PBS, 3 μM eptifibatide or Hr10 were administered IV. After another 5 minutes, mouse tail injury was produced by amputating an 8-mm terminal tail segment using a razor blade, which was then placed in a collection tube containing sterile water at 37° C. for 10 minutes. The hemoglobin level in the water was measured by a spectrophotometer, as described (see e.g., Greene et al, J. Thromb. Haemost. 8, 2820-2822 (2010)) with the following modifications. Briefly, the hemolyzed whole blood/water mixture was centrifuged at 21,000×g for 5 minutes. Aliquots (20 μL) of clarified, stroma-free supernatant were diluted 10-fold in a Corning 96-well micro-plate and light absorbance measured at 575 nm (Spectramax-190 plate reader, Molecular Devices, San Jose, Calif.). Blood loss during the 10-minute window was measured based on a previously obtained standard curve.

human platelets [3] = experiment: Surface expression of CD62P and CD63 on human platelets (flow cytometry); assay type: cell-based; settings: 1.5 μM; ADP 20 μM; FIG. 11F
Method: αVβ3-K562 cells or transiently transfected HEK293T (0.5×10^6 in 100 μL WB) were incubated in the absence or presence of unlabeled Hr10 or eptifibatide, each at 1.5 μM, for 20 min at RT. Alexa647-labeled AP5 Fab or unlabeled anti-LIBS-1 (each to 10 μg/mL) were added, and cells incubated for an additional 30 min before washing. Alexa647-labeled AP3 was used for normalization of integrin expression. APC-labeled goat anti-mouse Fc-specific antibody was added to anti-LIBS-1-bound cells for an additional 30 min at 4° C., cells washed and processed for flow cytometry. Binding of anti-CD62 and anti-CD63 mAbs to platelets was performed by incubating (20 min, RT) 100 μL of ligand-pretreated 3.2% sodium citrate whole blood with either Alexa488-labeled mAb (at 10 μg/mL) in the presence of 10 μg/mL Alexa647-labeled anti-CD42b. Cells were fixed in 2% paraformaldehyde and CD62 and CD63 expression was analyzed by flow cytometry in the CD42b positive population.

αIIbβ3 = target: T1, αIIbβ3 (Homo sapiens, UniProt P05106+P08514); experiment: Binding of conformation-sensitive mAbs AP5 / LIBS-1 to human platelets; assay type: cell-based
T1 construct: expressed in transfected cells; host or cells: K562

human platelets [4] = experiment: Cremaster laser injury thrombosis in vWF RH/RH NSG mice infused with human platelets; assay type: in vivo; settings: eptifibatide 5 μg/mouse, Hr10 60 μg/mouse (equimolar), infused 5 min before injury; FIG. 13A
Method: Human blood was collected in 0.129 M sodium citrate (10:1 vol/vol). Blood was obtained from healthy donors after informed consent. Platelet-rich plasma (PRP) was separated after centrifugation (200 g, 10 minutes) at room temperature (RT). The platelets were then isolated from PRP, and prostaglandin E1 (Sigma-Aldrich) added to a final concentration of 1 μM. Platelets were then pelleted by centrifugation (800 g, 10 minutes) at RT. The pellet was washed in calcium-free Tyrode's buffer (134 mM NaCl, 3 mM KCl, 0.3 mM NaH2PO4, 2 mM MgCl2, 5 mM HEPES, 5 mM glucose, 0.1% NaHCO3, and 1 mM EGTA, pH 6.5), and re-suspended in CATCH buffer (PBS and 1.5% bovine serum albumin, 1 mM adenosine, 2 mM theophylline, 0.38% sodium citrate, all from Sigma-Aldrich). Platelet counts were determined using a HemaVet counter (Drew Scientific). Intravital microscopy was performed as previously described (see e.g., Celi et al, J. Thromb. Haemost. 1, 60-68 (2003); and Neyman et al, Blood, 112, 1101-1108 (2008)). vWF^RH RHNSG male mice were studied after being anesthetized using sodium pentobarbital (80 mg/kg) injected intraperitoneally. Mice were maintained under anesthesia with the same anesthetic delivered via a catheterized jugular vein at 5 mg/mL throughout the experiment. […]

T1 sequence (P08514 32-887 limits assumed): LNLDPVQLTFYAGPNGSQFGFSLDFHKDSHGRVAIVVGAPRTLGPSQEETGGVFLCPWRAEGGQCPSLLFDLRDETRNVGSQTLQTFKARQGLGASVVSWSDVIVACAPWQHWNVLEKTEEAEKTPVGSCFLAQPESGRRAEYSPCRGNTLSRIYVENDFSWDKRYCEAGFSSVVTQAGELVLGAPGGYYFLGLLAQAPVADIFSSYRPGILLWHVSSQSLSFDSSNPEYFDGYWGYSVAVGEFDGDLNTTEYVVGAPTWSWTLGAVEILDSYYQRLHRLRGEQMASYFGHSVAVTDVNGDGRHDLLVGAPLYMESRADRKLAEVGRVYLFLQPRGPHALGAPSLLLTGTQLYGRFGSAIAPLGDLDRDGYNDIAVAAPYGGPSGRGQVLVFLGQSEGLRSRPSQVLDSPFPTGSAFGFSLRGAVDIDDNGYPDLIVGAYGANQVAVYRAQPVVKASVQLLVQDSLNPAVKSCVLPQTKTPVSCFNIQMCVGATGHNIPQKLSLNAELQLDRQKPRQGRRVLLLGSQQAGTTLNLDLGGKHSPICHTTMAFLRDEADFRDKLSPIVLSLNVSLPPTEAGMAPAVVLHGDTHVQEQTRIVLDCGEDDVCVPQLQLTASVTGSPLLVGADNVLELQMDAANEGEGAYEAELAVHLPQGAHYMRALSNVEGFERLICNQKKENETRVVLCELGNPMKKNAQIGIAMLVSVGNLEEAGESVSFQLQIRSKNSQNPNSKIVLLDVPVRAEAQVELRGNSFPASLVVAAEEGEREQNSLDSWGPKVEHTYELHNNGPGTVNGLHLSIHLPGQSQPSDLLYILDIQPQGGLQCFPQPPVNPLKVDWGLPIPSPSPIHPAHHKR
T1 sequence (P08514 891-1039 partner limits assumed): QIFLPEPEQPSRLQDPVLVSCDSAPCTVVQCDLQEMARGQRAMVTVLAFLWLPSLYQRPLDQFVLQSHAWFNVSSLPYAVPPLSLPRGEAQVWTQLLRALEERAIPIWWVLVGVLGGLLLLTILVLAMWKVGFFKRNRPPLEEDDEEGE
T1 sequence (P05106 27-788): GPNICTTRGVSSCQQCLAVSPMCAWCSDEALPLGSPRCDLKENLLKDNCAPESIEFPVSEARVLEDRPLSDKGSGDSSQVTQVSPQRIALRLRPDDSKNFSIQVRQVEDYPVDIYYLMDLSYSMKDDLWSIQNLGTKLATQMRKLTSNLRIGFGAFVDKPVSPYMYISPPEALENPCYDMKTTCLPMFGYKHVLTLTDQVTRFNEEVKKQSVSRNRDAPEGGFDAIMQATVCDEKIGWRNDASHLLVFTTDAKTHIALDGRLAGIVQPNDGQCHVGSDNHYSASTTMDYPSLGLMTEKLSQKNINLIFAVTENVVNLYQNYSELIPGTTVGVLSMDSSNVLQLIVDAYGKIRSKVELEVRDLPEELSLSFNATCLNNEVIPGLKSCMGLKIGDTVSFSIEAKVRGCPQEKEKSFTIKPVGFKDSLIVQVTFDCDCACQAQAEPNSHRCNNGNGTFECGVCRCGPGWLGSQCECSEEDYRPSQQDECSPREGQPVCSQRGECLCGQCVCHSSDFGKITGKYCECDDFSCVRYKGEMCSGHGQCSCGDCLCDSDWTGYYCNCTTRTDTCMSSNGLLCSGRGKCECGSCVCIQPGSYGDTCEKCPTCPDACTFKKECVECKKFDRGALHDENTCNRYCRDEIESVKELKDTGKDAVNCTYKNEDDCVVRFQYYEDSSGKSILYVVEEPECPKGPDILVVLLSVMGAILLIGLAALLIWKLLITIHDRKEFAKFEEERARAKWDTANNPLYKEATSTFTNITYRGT

Bleeding volume [2]	Bleeding in humanized mice ([2]; iv)	Conformational changes in αIIbβ3 reported by binding of mAbs AP5 and LIBS-1 (αIIbβ3; 1.5 μM, absence or presence of 5 μM ADP, FIG. 8D)	Induction of AP5 epitope expression on human platelets (αIIbβ3; tirofiban 150 nM, M-tirofiban 1.5 μM, ADP 5 μM, FIG. 6D)	SMILES	Kinetics of thrombin-induced clot retraction vs. buffer (human platelets [1]; fresh human PRP, 2 hours, FIGS. 12A-12B, three experiments)	ADP-induced secretion from lysosomes (CD63 expression) (human platelets [3])	ADP-induced secretion from platelet α-granules (CD62P expression) (human platelets [3])	Nascent occlusive thrombus formation / human platelet accumulation at laser-induced arteriolar injury (human platelets [4])	Kinetics of thrombin-induced clot retraction (human platelets [1]; FIG. 6E, three experiments, vs buffer control)	Clot retraction induced by α-thrombin (photographs) (human platelets [1]; tirofiban 1.5 μM, m-tirofiban 15 μM, α-thrombin 0.5 unit/mL, FIG. 5)
~10 % of blood volume of a normal mouse	caused excessive bleeding	induced conformational changes in αIIbβ3		N=C(N)NCCCC[C@@H]1NC(=O)CCSSC[C@@H](C(N)=O)NC(=O)[C@@H]2CCCN2C(=O)[C@H](Cc2c[nH]c3ccccc23)NC(=O)[C@H](CC(=O)O)NC(=O)CNC1=O [eptifibatide] ([Mpa][hArg]GDWPC-NH2; disulfide 1-7)	significantly blocked clot retraction; also recorded: clot retraction was significantly reduced	did not significantly alter; also recorded: No differences	did not significantly alter; also recorded: No differences	completely preventing nascent occlusive thrombus formation		
			induced expression of the AP5 epitope	CCCCS(=O)(=O)N[C@@H](Cc1ccc(OCCCCC2CCNCC2)cc1)C(=O)O [tirofiban]					effectively blocked thrombin-induced clot retraction	completely blocked clot retraction
